What all share (type): functional
The subject of one assay is Staphylococcus aureus. The assay can be described thus: Antimicrobial activity against Staphylococcus aureus by microdilution method.
The next assay has as its system Pseudomonas aeruginosa. The assay can be described thus: Antimicrobial activity against Pseudomonas aeruginosa 5541 by microdilution method. (In broth dilution the organism is exposed to a series of concentrations in liquid medium.)
In the next assay the test system is Enterococcus faecalis. The assay can be described thus: Antimicrobial activity against Enterococcus faecalis 13773 by microdilution method.
For another assay, the system named is Bacillus subtilis. The assay can be described thus: Antimicrobial activity against Bacillus subtilis 10.10.2006 by microdilution method.
For the next assay, the system named is Klebsiella pneumoniae. The assay can be described thus: Antimicrobial activity against Klebsiella pneumoniae 126/2007 by microdilution method.
In a further assay the test system is Acinetobacter baumannii. Put plainly: Antimicrobial activity against Acinetobacter baumannii 15896 by microdilution method.
In a further assay the test system is Escherichia coli. Put plainly: Antimicrobial activity against Escherichia coli 637/2007 by microdilution method.

In brackets after ≈: the same amount, converted by molar mass.

Take `Cc1cccc(NC(=S)NC(=O)c2cnn(C)c2)c1`: the MIC is above 1000 µg/mL in the assay on Staphylococcus aureus; above 1000 µg/mL with Pseudomonas aeruginosa; above 1000 µg/mL in the assay on Enterococcus faecalis; 1000 µg/mL (≈ 3.64 mM) in the assay on Bacillus subtilis; 1000 µg/mL (≈ 3.64 mM) against Klebsiella pneumoniae; above 1000 µg/mL with Acinetobacter baumannii. Besides, the MIC against Escherichia coli is above 1000 µg/mL.

As for `Cc1ccccc1NC(=S)NC(=O)c1cnn(C)c1`, the MIC with Staphylococcus aureus, in the assay on Pseudomonas aeruginosa, against Enterococcus faecalis, in the assay on Bacillus subtilis, in the assay on Klebsiella pneumoniae and in the assay on Acinetobacter baumannii was above 1000 µg/mL in each case. The MIC in the assay with Escherichia coli is above 1000 µg/mL.

Turning to `CC(C)c1ccc(NC(=S)NC(=O)c2cnn(C)c2)cc1`, the MIC against Staphylococcus aureus, against Pseudomonas aeruginosa, against Enterococcus faecalis, in the assay with Bacillus subtilis, in the assay with Klebsiella pneumoniae and against Acinetobacter baumannii was above 1000 µg/mL throughout. Moreover, the MIC against Escherichia coli was above 1000 µg/mL.

Take `Cn1cc(C(=O)NC(=S)Nc2ccccc2C(C)(C)C)cn1`: the minimal inhibitory concentration (MIC) in the assay on Staphylococcus aureus was above 1000 µg/mL; against Pseudomonas aeruginosa, above 1000 µg/mL; in the assay on Enterococcus faecalis, above 1000 µg/mL; with Bacillus subtilis, above 1000 µg/mL; against Klebsiella pneumoniae, above 1000 µg/mL; against Acinetobacter baumannii, 1000 µg/mL (≈ 3.16 mM). For the same compound, in the assay on Escherichia coli, the MIC is above 1000 µg/mL.

On to `Cc1ccc(NC(=S)NC(=O)c2cnn(C)c2)cc1`, for which the MIC in the assay with Staphylococcus aureus, against Pseudomonas aeruginosa, in the assay with Enterococcus faecalis, against Bacillus subtilis, against Klebsiella pneumoniae and with Acinetobacter baumannii was above 1000 µg/mL throughout. Further, the MIC against Escherichia coli is above 1000 µg/mL.

With `Cn1cc(C(=O)NC(=S)Nc2ccc(C(C)(C)C)cc2)cn1`, the MIC against Staphylococcus aureus, with Pseudomonas aeruginosa, against Enterococcus faecalis, in the assay with Bacillus subtilis, in the assay with Klebsiella pneumoniae and with Acinetobacter baumannii was above 1000 µg/mL each time. In the assay with Escherichia coli, this compound registered an MIC above 1000 µg/mL.

What is called MIC is the lowest concentration found to suppress growth.

Values taken from ChEMBL document CHEMBL3045554, “Synthesis and antimicrobial screening of N-(1-methyl-1H-pyrazole-4-carbonyl)-thiourea derivatives” (2012).
